Where two headings read alike, the source gives them in different places.
System: RSV A2 strain
Assay: In vitro CPE (CytoPathic Effect) inhibition effect evaluation test, RSV type A
Format: cell-based
Procedure: The test sample is diluted in advance to an appropriate concentration with DMSO, and 3-fold series of serial dilutions were prepared on a 384-well plate (0.32 μL/well). HEp-2 cells (CCL-23; ATCC) adjusted at appropriate number (2.4×10^5 cells/mL) in 2% FBS E-MEM (prepared by adding kanamycin and FBS to Eagle's Minimum Essential Medium; Invitrogen) were added at 12.5 μL/well to the 384-well plate previously aliquoted with the test samples. The RSV A2 strain was diluted to an appropriate concentration in a culture medium and added to the 384-well plate containing the test sample at 12.5 μL/well. The culture medium was added additionally to the 384-well plate, and the test was started with 50 μL/well. Control wells were prepared with only virus-free culture medium. The plate was incubated in a 5% CO2 incubator at 37° C. for 4 days, and the plate was then placed at room temperature for 30 minutes. CellTiter-Glo (registered trademark) 2.0 assay (Promega) was added at 15 μL/well, mixed for 30 seconds, and the plate was placed for approximately 1 hour. The luminescent signal was then measured by EnVision (PerkinElmer). The inhibitory effect of the test agents on RSV-induced CPE was calculated as 0% and 100% inhibition rate for each sample concentration based on the level of remaining viable cells by CellTiter-Glo (registered trademark) 2.0, with the EC50 value for each compound calculated by nonlinear regression as the concentration that inhibits RSV-induced CPE by 50%. In the case of evaluation against RSV type B, RSV B (Wash/18537 strain) was infected in the same manner as the type A, cultured for 5 days, and quantitated in the same manner as for the A2 strain.

[1] = human respiratory syncytial virus, inhibitory effect against RSV type A (RSV A2 strain), HEp-2 cells, CPE inhibition, read-out: EC50
[2] = human respiratory syncytial virus, HEp-2
[3] = inhibitory effect against RSV type A (RSV A2 strain), HEp-2 cells, CPE inhibition, read-out: EC50

EC50 [1] | SMILES | also measured
0.01 to 0.1 µM | O=C(NC1(C(=O)O)CCC(F)(F)CC1)c1cnc(N2CCc3cc(OCCC4CCOCC4)ccc32)nc1C(F)(F)F [Compound I-20] | –
0.01 to 0.1 µM | CNC(=O)C1(NC(=O)c2cnc(N3CC4(CCOCC4)c4cc(OC5CCN(c6ncccn6)CC5)ccc43)nc2C(F)(F)F)C2CC3CC(C2)CC1C3 (centres unmarked) [Compound I-173] | –
< 0.01 µM | O=C(NC1(C(=O)O)C2CC3CC(C2)CC1C3)c1ccc(-c2cn([C@H]3CC[C@@H](C(F)(F)F)CC3)c3cc(OC4CCN(c5ncccn5)CC4)ccc23)nc1C(F)(F)F (some centres unmarked) [Compound I-285] | –
< 0.01 µM | CC1CN(c2ncc(F)cn2)CCC1Oc1ccc2c(-c3ncc(C(=O)NC4(C(=O)O)C5CC6CC(C5)CC4C6)c(C(F)(F)F)n3)cn(C3CCC(F)(F)CC3)c2c1 (centres unmarked) [Compound I-376] | –
0.01 to 0.1 µM | COc1ccc2c(c1)c(-c1ncc(C(=O)NC3(C(=O)O)C4CC5CC(C4)CC3C5)c(C(F)(F)F)n1)cn2C1CCC(F)(F)CC1 (centres unmarked) [Compound I-454] | –
< 0.01 µM | O=C(NC1(C(=O)O)C2CC3CC(C2)CC1C3)c1cnc(-c2cn(C3CCC(F)(F)CC3)c3cc(OC4CCN(S(=O)(=O)C5CC5)CC4)ccc23)nc1C(F)(F)F (centres unmarked) [Compound I-259] | –
< 0.01 µM | O=C(NC1(C(=O)O)C2CC3CC(C2)CC1C3)c1cnc(-c2cn(C3CCC(F)(F)CC3)c3ccc(O[C@H]4CC[C@H](n5cccn5)CC4)cc23)nc1C(F)(F)F (some centres unmarked) [Compound I-232] | –
< 0.01 µM | CC1CC(Oc2ccc3c(-c4ncc(C(=O)NC5(C(=O)O)C6CC7CC(C6)CC5C7)c(C(F)(F)F)n4)cn(C4CCC(F)(F)CC4)c3c2)CCN1CC(F)(F)F (centres unmarked) [Compound I-414] | –
< 0.01 µM | O=C(N[C@@]1(C(=O)O)[C@@H]2C[C@@H]3C[C@H]1C[C@@](F)(C3)C2)c1cnc(N2CCc3cc(OCCC4CCOCC4)ccc32)nc1C(F)(F)F [Compound I-163] | –
– | O=C(NC1(c2noc(=O)[nH]2)CCCCC1)c1cnc(N2CC3(CCOCC3)c3cc(OC4CCN(c5ncccn5)CC4)ccc32)nc1C(F)(F)F [Compound I-99] | EC50 [2]: < 0.01 µM
< 0.01 µM | O=C(NC1(C(=O)O)C2CC3CC(C2)CC1C3)c1cnc(N2CC3(CCOCC3)c3cc(Nc4ccccn4)ccc32)nc1C(F)(F)F (centres unmarked) [Compound I-280] | –
0.01 to 0.1 µM | COc1ccc2c(c1)C1(CCOCC1)CN2c1nc(CCCO)c(C(=O)NC2(C(=O)O)C3CC4CC(C3)CC2C4)c(C(F)(F)F)n1 (centres unmarked) [Compound I-187] | –
< 0.01 µM | CC1CN(CC(F)(F)F)CCC1Oc1ccc2c(-c3ncc(C(=O)NC4(C(=O)O)C5CC6CC(C5)CC4C6)c(C(F)(F)F)n3)cn(C3CCC(F)(F)CC3)c2c1 (centres unmarked) [Compound I-403] | –
< 0.01 µM | O=C(NC1(C(=O)O)C2CC3CC(C2)CC1C3)c1cnc(N2CC3(CCCCC3)c3c2ccc(OC2CCN(c4ncccn4)CC2)c3F)nc1C(F)(F)F (centres unmarked) [Compound I-439] | –
< 0.01 µM | O=C(NC1(C(=O)O)C2CC3CC(C2)CC1C3)c1cnc(-c2cn(C3CCC(F)(F)CC3)c3cc(OC4CCN(c5ncccn5)CC4F)ccc23)nc1C(F)(F)F (centres unmarked) [Compound I-371] | –
– | O=C(NC1(C(=O)O)C2CC3CC(C2)CC1C3)c1cnc(N2CC3(CCOCC3)c3cc(Cc4ccccc4)ccc32)nc1C(F)(F)F (centres unmarked) [Compound I-293] | EC50 [3]: 0.01 to 0.1 µM
< 0.01 µM | O=C(NC1(C(=O)O)C2CC3CC(C2)CC1C3)c1cnc(-c2cn(-c3ncccn3)c3cc(OC4CCN(c5ncc(F)cn5)CC4)ccc23)nc1C(F)(F)F (centres unmarked) [Compound I-468] | –
< 0.01 µM | O=C(NC1(C(=O)O)C2CC3CC(C2)CC1C3)c1cnc(N2CC3(CCCCC3)c3cc(O[C@H]4CC[C@H](ON=C5CC(F)(F)C5)CC4)ccc32)nc1C(F)(F)F (some centres unmarked) [Compound I-460] | –
– | CC1CN(c2ncccn2)CCC1Oc1ccc2c(-c3ncc(C(=O)NC4(C(=O)O)C5CC6CC(C5)CC4C6)c(C(F)(F)F)n3)cn(C3CCC(F)(F)CC3)c2c1 (single isomer, unassigned) [Compound I-405] | EC50 [3]: < 0.01 µM
– | O=C(NC1(C(=O)O)CCCCC1)c1cnc(N2CC3(CCNCC3)c3cc(OCCC4CCOCC4)ccc32)nc1C(F)(F)F [Compound I-89] | EC50 [2]: 0.1 to 5 µM
< 0.01 µM | O=C(NC1(C(=O)O)CCCCC1)c1cnc(N2CCc3cc(O[C@@H]4CCN(c5ncccn5)C4)ccc32)nc1C(F)(F)F [Compound I-74] | –
< 0.01 µM | O=C(NC1(C(=O)O)C2CC3CC(C2)CC1C3)c1ccc(-c2cn(-c3cccc(F)c3)c3cc(OC4CCN(c5ncccn5)CC4)ccc23)nc1C(F)(F)F (centres unmarked) [Compound I-390] | –
< 0.01 µM | O=C(NC1(C(=O)O)C2CC3CC(C2)CC1C3)c1cnc(N2CCc3cc(OC4CCN(C5COC5)CC4)ccc32)nc1C(F)(F)F (centres unmarked) [Compound I-220] | –

EC50 [1] | SMILES | also measured
– | NC(=O)C1(NC(=O)c2cnc(N3CC4(CCNCC4)c4cc(OCCC5CCOCC5)ccc43)nc2C(F)(F)F)C2CC3CC(C2)CC1C3 (centres unmarked) [Compound I-171] | EC50 [2]: 0.01 to 0.1 µM
0.01 to 0.1 µM | O=C(NC1(C(=O)O)C2CC3CC(C2)CC1C3)c1cnc(N2CC3(CCOCC3)c3cc(O)ccc32)nc1C(F)(F)F (centres unmarked) [Compound I-201] | –
< 0.01 µM | O=C(NC1(C(=O)O)C2CC3CC(C2)CC1C3)c1cnc(-c2cn(C3CCC(F)(F)CC3)c3cc(OC4CCC(N5CCC(F)(F)C5)CC4)ccc23)nc1C(F)(F)F (single isomer, unassigned) [Compound I-427] | –
< 0.01 µM | O=C(NC1(C(=O)O)C2CC3CC(C2)CC1C3)c1cnc(N2c3cc(F)c(OC4CCN(c5ncccn5)CC4)cc3C3CCCCCC32)nc1C(F)(F)F (single isomer, unassigned) [Compound I-395] | –
< 0.01 µM | COc1cc(COc2ccc3c(c2)CCN3c2ncc(C(=O)NC3(C(=O)O)CCCCC3)c(C(F)(F)F)n2)cc(OC)c1 [Compound I-29] | –
< 0.01 µM | Cn1cc(CN2CC(Oc3ccc4c(c3)C3(CCOCC3)CN4c3ncc(C(=O)NC4(C(=O)O)C5CC6CC(C5)CC4C6)c(C(F)(F)F)n3)C2)cn1 (centres unmarked) [Compound I-231] | –
< 0.01 µM | O=C(NC1(C(=O)O)C2CC3CC(C2)CC1C3)c1cnc(-c2cn(C3CCC(F)(F)CC3)c3cc(OCCNc4ncccn4)ccc23)nc1C(F)(F)F (centres unmarked) [Compound I-372] | –
0.01 to 0.1 µM | O=C(NC1(C(=O)O)C2CC3CC(C2)CC1C3)c1cnc(-c2cn(C3CCC(F)(F)CC3)c3cc(OC4CCN(C(=O)c5ncccn5)CC4)ccc23)nc1C(F)(F)F (centres unmarked) [Compound I-260] | –
0.01 to 0.1 µM | COc1cccc(C(=O)Nc2ccc3c(c2)CCN3c2ncc(C(=O)NC3(C(=O)O)CCCCC3)c(C(F)(F)F)n2)c1 [Compound I-39] | –
0.01 to 0.1 µM | O=C(NC1(C(=O)O)C2CC3CC(C2)CC1C3)c1ccc(N2CCc3cc(OCCC4CCOCC4)cnc32)cc1C(F)(F)F (centres unmarked) [Compound I-125] | –
< 0.01 µM | COc1ccc(N2CCC(Oc3ccc4c(c3)CCN4c3ncc(C(=O)NC4(C(=O)O)CCCCC4)c(C(F)(F)F)n3)CC2)nc1 [Compound I-78] | –
– | N#Cc1cccc(-n2cc(-c3ccc(C(=O)NC4(C(=O)O)C5CC6CC(C5)CC4C6)c(C(F)(F)F)n3)c3ccc(OC4CCN(c5ncccn5)CC4)cc32)n1 (centres unmarked) [Compound I-339] | EC50 [3]: < 0.01 µM
< 0.01 µM | NC(=O)[C@@]1(NC(=O)c2cnc(N3CC4(CCOCC4)c4cc(OC5CCN(c6ncccn6)CC5)ccc43)nc2C(F)(F)F)[C@@H]2CC3C[C@H]1C[C@@](F)(C3)C2 [Compound I-166] | –
< 0.01 µM | CC(F)(F)c1nc(N2CCc3cc(OCCC4CCOCC4)ccc32)ncc1C(=O)NC1(C(=O)O)C2CC3CC(C2)CC1C3 (centres unmarked) [Compound I-161] | –
< 0.01 µM | O=C(NC1(C(=O)O)C2CC3CC(C2)CC1C3)c1cnc(-c2cn(C3CCC(F)(F)CC3)c3cc(OC4CCN(c5nccs5)CC4)ccc23)nc1C(F)(F)F (centres unmarked) [Compound I-236] | –
< 0.01 µM | O=C(NC1(C(=O)O)C2CC3CC(C2)CC1C3)c1cnc(N2CC3(CCOCC3)c3cc(OC4CN(C5COC5)C4)ccc32)nc1C(F)(F)F (centres unmarked) [Compound I-226] | –
< 0.01 µM | CC(C)(F)c1nc(N2CCc3cc(OCCC4CCOCC4)ccc32)ncc1C(=O)NC1(C(=O)O)C2CC3CC(C2)CC1C3 (centres unmarked) [Compound I-179] | –
– | CCNC(=O)N1CCC2(C1)CN(c1ncc(C(=O)NC3(C(=O)O)C4CC5CC(C4)CC3C5)c(C(F)(F)F)n1)c1ccc(OC3CCN(c4ncccn4)CC3)cc12 (racemic) [Compound I-364] | EC50 [3]: < 0.01 µM
< 0.01 µM | O=C(NC1(C(=O)O)C2CC3CC(C2)CC1C3)c1cnc(N2CC3(CCOCC3)c3cc(OCC(F)F)ccc32)nc1C(F)(F)F (centres unmarked) [Compound I-459] | –
– | CC(F)(F)c1nc(-c2cn(C3CCC(F)CC3)c3cc(O[C@H]4CC[C@H](N5CC(F)(F)C5)CC4)ccc23)ncc1C(=O)NC1(C(=O)O)C2CC3CC(C2)CC1C3 (single isomer, unassigned) [Compound I-571] | EC50 [3]: < 0.01 µM
< 0.01 µM | O=C(NC1(C(=O)O)C2CC3CC(C2)CC1C3)c1cnc(N2CC3(CCOCC3)c3cc(CC4CCN(c5ncccn5)CC4)ccc32)nc1C(F)(F)F (centres unmarked) [Compound I-119] | –
< 0.01 µM | O=C(NC1(C(=O)O)CCCCC1)c1cnc(N2CC3(CCOCC3)c3nc(OC4CCN(c5ncccn5)CC4)ccc32)nc1C(F)(F)F [Compound I-108] | –
– | O=C(NC1(C(=O)O)C2CC3CC(C2)CC1C3)c1cnc(N2CC3(CCOCC3)c3cc(Oc4ccccc4)ccc32)nc1C(F)(F)F (centres unmarked) [Compound I-348] | EC50 [3]: < 0.01 µM

SMILES | EC50 [1] | also measured
COc1cccc(COc2ccc3c(c2)CCN3c2ncc(C(=O)NC3(C(=O)O)CC4CCC3C4)c(C(F)(F)F)n2)c1 (centres unmarked) [Compound I-13] | < 0.01 µM | –
